Assay results published in patent EP0257993B1, “Nucleic acid fragment encoding herbicide resistant plant acetolactate synthase” (priority 1986, dated 1988).
Read-outs that look alike come from different tables or passages of the source.

Columns and labels:
tobacco callus [1] = conditions: Kanamycin, 50 mg/L
Description: For plant cell transformations, standard aseptic techniques for the manipulation of sterile media and axenic plant/bacterial cultures were followed, including the use of a laminar flow hood for all transfers. Recipes for media are given in Example VI. Potted tobacco plants for leaf disk infections were grown in a growth chamber maintained for a 12 hr. 24°C day, 12 hr, 20°C night cycle, with approximately 80% relative humidity, under mixed cool white fluorescent and incandescent lights. Tobacco leaf disk infections were carried out essentially by the method of Horsch et al. (1985) Science 227, 1229.
Young leaves, not fully expanded and approximately 4-6 inches in length, were harvested with a scalpel from approximately 4-6 week old tobacco plants (Nicotiana tabacum var. Xanthi). The leaves were surface sterilized for 30 minutes by submerging them in approximately 500 ml of a 10% Chlorox, 0.1% SDS solution and then rinsed 3 times with sterile deionized water. Leaf disks, 6 mm in diameter, were prepared from whole leaves using a sterile paper punch.
Leaf disks were inoculated by submerging them for several minutes in 20 ml of a 1:10 dilution of an overnight Agrobacterium culture carrying the plasmid GCKNT13. Agrobacterium cultures were started by inoculating 10 ml of YEB broth with a single bacterial colony removed form a R-agar plate. The culture was grown for approximately 17-20 hours in 18 mm glass culture tubes in a New Brunswick platform shaker maintained at 28°C.
After inoculation, the leaf disks were placed in petri dishes containing CN agar medium. The dishes were sealed with paraflm and incubated under mixed fluorescent and "Gro and Sho" plant light (General Electric) for 2-3 days in a culture room maintained at approximately 25°C.
[…] Cefotaxime was kept as a frozen 100 mg/ml stock solution and added aseptically (filter sterilized through a 0.45 µm filter) to the media after autoclaving. A fresh kanamycin stock (50 mg/ml) was made for each use and was filter sterilized into the autoclaved media.
Leaf disks were incubated under the growth conditions described above for 3 weeks and then transferred to fresh media of the same composition.
Root formation on selective and non-selective media was recorded within 3 weeks.
Callus growth on selective and non-selective media was recorded within 3 weeks.

[2] = tested on: Brassica napus callus tissue; assay: Kanamycin selection of Brassica napus hypocotyl explants; format: cell-based, Brassica napus cv. Olga; conditions: of 100 wound sites; kanamycin 100 mg/L
[3] = tested on: Cells of N.tabacum cv. W38; assay: Level of chlorsulfuron resistance in transformed N. tabacum colonies; format: cell-based
calli of B. vulgaris = assay: Chlorsulfuron resistance of sugarbeet calli; format: cell-based, Beta vulgaris 87193
Excerpt: Selection for transformed plant cells was applied as follows. […] The number of resistant colonies was counted after 20-30 days. More than one may be observed at each wound. Transformants were excised as follows. Callus was removed from the wound/explant with a surgical blade and cultured independently on fresh selective media. Some Agrobacterium can escape from counter-selection. Additional washes in cefotaxime containing liquid media are possible, as is repeated transfer to cefotaxime containing agar solidified plates. […]

Brassica napus = Brassica napus plants sprayed with chlorsulfuron; format: in vivo, Brassica napus cv. Olga
tobacco callus [4] = assay: Growth of tobacco mutant callus (C3, S4, Hra) on herbicide; format: cell-based, Nicotiana tabacum var. Xanthi; conditions: Hra cell line
Description: (§1) Callus cultures of sensitive tobacco (Nicotiana tabacum var. Xanthi) were exposed to sulfometuron methyl at 2 ppb according to the method described by Chaleff, U.S. 4,443,971. […] Plants were regenerated from Hra callus cultures. […] ALS activity in extracts of leaves of wild type and homozygous Hra mutant tobacco plants was determined.

ALS = format: biochemical, Nicotiana tabacum; conditions: C3 and S4 lines
Description: as §1

NC[C@H]1O[C@H](O[C@H]2[C@H](O)[C@@H](O[C@H]3O[C@H](CO)[C@@H](O)[C@H](N)[C@H]3O)[C@H](N)C[C@@H]2N)[C@H](O)[C@@H](O)[C@@H]1O [Kanamycin]
Number of transformed shoot explants producing callus on selective and non-selective media (tobacco callus [1]; EXP. #1, GV3850): 0/10 | Number of transformed shoot explants producing callus on selective and non-selective media (tobacco callus [1]; EXP. #1, GVKK): 8/13 | Number of transformed shoot explants producing callus on selective and non-selective media (tobacco callus [1]; EXP. #1, GVKNT13): 53/62 | Number of transformed shoot explants producing callus on selective and non-selective media (tobacco callus [1]; Exp. #2, GV3850): 0/25 | Number of transformed shoot explants producing callus on selective and non-selective media (tobacco callus [1]; Exp. #2, GVKK): 16/23 | Number of transformed shoot explants producing callus on selective and non-selective media (tobacco callus [1]; Exp. #2, GVKNT13): 81/102 | wound sites that developed callus tissue resistant to kanamycin [2]: 20

COc1nc(C)nc(NC(=O)NS(=O)(=O)c2ccccc2Cl)n1 [chlorsulfuron]
chlorsulfuron resistance conferred in transformed tobacco calluses ([3]; 8.3 kb DNA fragment (SURB-Hra)): up to 2000 ppb | concentration colonies could tolerate ([3]; colonies derived from co-cultivation with A. tumefaciens containing pAGS152): up to 2000 ppb | concentration at which colonies are sensitive ([3]; wild type colonies): 2 ppb | level of chlorsulfuron resistance in calli of B. vulgaris (calli of B. vulgaris; 87193/0 (untransformed), Chlorsulfuron 10 ppb): 0/15 | level of chlorsulfuron resistance in calli of B. vulgaris (calli of B. vulgaris; 87193/0 (untransformed), Chlorsulfuron 30 ppb): 0/15 | level of chlorsulfuron resistance in calli of B. vulgaris (calli of B. vulgaris; 87193/152 (transformed, pAGS152), Chlorsulfuron 10 ppb): 15/15 | level of chlorsulfuron resistance in calli of B. vulgaris (calli of B. vulgaris; 87193/152 (transformed, pAGS152), Chlorsulfuron 30 ppb): 15/15 | level of chlorsulfuron resistance in calli of B. vulgaris (calli of B. vulgaris; 87193/152 (transformed, pAGS152), Chlorsulfuron 100 ppb): 15/15 | level of chlorsulfuron resistance in calli of B. vulgaris (calli of B. vulgaris; 87193/152 (transformed, pAGS152), Chlorsulfuron 300 ppb): 15/15 | level of chlorsulfuron resistance in calli of B. vulgaris (calli of B. vulgaris; 87193/152 (transformed, pAGS152), Chlorsulfuron 1000 ppb): 15/15 | level of chlorsulfuron resistance in calli of B. vulgaris (calli of B. vulgaris; 87193/152 (transformed, pAGS152), Chlorsulfuron 3000 ppb): 3/15 | level of chlorsulfuron resistance in calli of B. vulgaris (calli of B. vulgaris; 87193/152 (transformed, pAGS152), Chlorsulfuron 10000 ppb): 0/15 | growth of plants sprayed with chlorsulfuron (Brassica napus; Ro #1, 0.3 ppm): ++ | growth of plants sprayed with chlorsulfuron (Brassica napus; Ro #1, 1 ppm): ++ | growth of plants sprayed with chlorsulfuron (Brassica napus; Ro #1, 3 ppm): ++ | growth of plants sprayed with chlorsulfuron (Brassica napus; Ro #1, 10 ppm): + | growth of plants sprayed with chlorsulfuron (Brassica napus; Ro #2, 0.3 ppm): ++ | growth of plants sprayed with chlorsulfuron (Brassica napus; Ro #2, 1 ppm): + | growth of plants sprayed with chlorsulfuron (Brassica napus; Ro #2, 3 ppm): - | growth of plants sprayed with chlorsulfuron (Brassica napus; Ro #2, 10 ppm): - | growth of plants sprayed with chlorsulfuron (Brassica napus; Ro #3, 0.3 ppm): ++ | growth of plants sprayed with chlorsulfuron (Brassica napus; Ro #3, 1 ppm): + | growth of plants sprayed with chlorsulfuron (Brassica napus; Ro #3, 3 ppm): + | growth of plants sprayed with chlorsulfuron (Brassica napus; Ro #3, 10 ppm): - | growth of plants sprayed with chlorsulfuron (Brassica napus; Ro #4, 0.3 ppm): ++ | growth of plants sprayed with chlorsulfuron (Brassica napus; Ro #4, 1 ppm): + | growth of plants sprayed with chlorsulfuron (Brassica napus; Ro #4, 3 ppm): - | growth of plants sprayed with chlorsulfuron (Brassica napus; Ro #4, 10 ppm): - | growth of plants sprayed with chlorsulfuron (Brassica napus; Ro #5, 0.3 ppm): +++ | growth of plants sprayed with chlorsulfuron (Brassica napus; Ro #5, 1 ppm): ++ | growth of plants sprayed with chlorsulfuron (Brassica napus; Ro #5, 3 ppm): ++ | growth of plants sprayed with chlorsulfuron (Brassica napus; Ro #5, 10 ppm): + | growth of plants sprayed with chlorsulfuron (Brassica napus; untransformed, 0.3 ppm): ++ | growth of plants sprayed with chlorsulfuron (Brassica napus; untransformed, 1 ppm): + | growth of plants sprayed with chlorsulfuron (Brassica napus; untransformed, 3 ppm): - | growth of plants sprayed with chlorsulfuron (Brassica napus; untransformed, 10 ppm): - | cross resistance of cell line (tobacco callus [4]): cross resistant | resistance of ALS enzyme activity compared with ALS from wild type (ALS): one-hundred fold
